The text below walks through data of ChEMBL document CHEMBL3758143, “5-Iodo-2-arylalkylthio-6-aryl pyrimidin-4(3H)-ones as non-nucleoside anti-HBV agents” (Medchemcomm, 2015).

For series [1], the system named is Hepatitis B virus. The series can be described thus: Antiviral activity against Hepatitis B virus in human HepAD38 cells assessed as inhibition of extracellular viral replication at 10 uM incubated for 2 days followed by 3 day incubation with fresh medium containing compound for 72 hrs by qRT-PCR analysis. The class given is functional.
Series [2] can be described thus: Cytotoxicity against human HepAD38 cells after 7 days by MTT assay. The class given is cell-based.
Series [3] in a line: Selectivity index, ratio of CC50 for human HepAD38 cells to EC50 for Hepatitis B virus. The class given is toxicity, cell-based. As to conditions: read-out: Ratio CC50/EC50.
Series [4] relates to Hepatitis B virus. Kind of series: Antiviral activity against Hepatitis B virus in human HepAD38 cells assessed as inhibition of extracellular viral replication incubated for 2 days followed by 3 day incubation with fresh medium containing compound for 72 hrs by qRT-PCR analysis. The class given is functional, organism-based. Background: In qPCR the cycle at which signal appears reflects the starting amount.

Series [5] relates to Hepatitis B virus. The series can be described thus: Antiviral activity against Hepatitis B virus in human HuH7 cells assessed as reduction in HBsAg secretion at 25 uM incubated for 2 days followed by 3 day incubation with fresh medium containing compound for 7 days by time-resolved fluoro-immunoassay. In kind it is functional, organism-based. Particulars: Huh-7.
Series [6] deals with Hepatitis B virus. Kind of series: Antiviral activity against Hepatitis B virus in human HuH7 cells assessed as inhibition of intracellular viral replication at 2.5 and 25 uM after 48 hrs by qRT-PCR analysis. The class given is functional, organism-based. As to conditions: Huh-7.
The test system of series [7] is Hepatitis B virus. Kind of series: Antiviral activity against Hepatitis B virus in human HuH7 cells assessed as reduction in HBeAg secretion incubated for 2 days followed by 3 day incubation with fresh medium containing compound for 7 days by time-resolved fluoro-immunoassay. In kind it is functional, organism-based. Particulars: Huh-7.
In series [8] the test system is Hepatitis B virus. The series can be described thus: Antiviral activity against Hepatitis B virus in human HuH7 cells assessed as reduction in HBeAg secretion at 25 uM incubated for 2 days followed by 3 day incubation with fresh medium containing compound for 7 days by time-resolved fluoro-immunoassay. The class given is functional, organism-based. Particulars: Huh-7.

The subject of series [9] is Hepatitis B virus. Kind of series: Effect on transcription level in Hepatitis B virus assessed as pgRNA level in human HuH7 cells after 48 hrs by qRT-PCR analysis. The class given is functional, organism-based. Particulars: Huh-7.

Structures are written as SMILES. Calls of active or inactive are those of the source. The calls are words filed in the database; no cut-off is given here. A value given as a limit tells only on which side of the number the result lay.

For `O=c1[nH]c(SCCOc2ccc(Br)cc2)nc(Cn2nnc3ccccc32)c1I`, the inhibition at 10 µM in series [1] was 31%.
Take `O=c1[nH]c(SCc2ccc([N+](=O)[O-])cc2)nc(Cc2cc(F)cc(F)c2)c1I`: the inhibition at 10 µM in series [1] came out at 47%.
The same measure, in the same setting: the figure for `O=c1[nH]c(SCc2ccc([N+](=O)[O-])cc2)nc(Cn2nnc3ccccc32)c1I` is 49%; for `COc1ccc(Cc2nc(SCCOc3ccc([N+](=O)[O-])cc3)[nH]c(=O)c2I)cc1OC` it is 6%.
`COc1cccc(CSc2nc(Cc3ccc(OC)c(OC)c3)c(I)c(=O)[nH]2)c1`: the inhibition result in [1] is “inactive”.
Compound `Nc1ccn([C@H]2CS[C@@H](CO)O2)c(=O)n1` came in with a CC50 at 168 h in [2] greater than 100 µM. Further, in series [3], the selectivity ratio was greater than 137. Further, the half-maximal effective concentration (EC50) in series [4] was 0.731 µM. In addition, the inhibition at 10 µM in series [1] came out at 88%.
The compound `COc1ccc(Cc2nc(SCc3ccc(C#N)cc3)[nH]c(=O)c2I)cc1OC` gave a half-maximal cytotoxic concentration (CC50) at 168 h in [2] of 92 µM. The selectivity ratio in series [3] worked out at 19. Besides, the EC50 in series [4] was 4.84 µM. The inhibition at 10 µM in [1] is 67%.
On to `Cc1cc(C)cc(Cc2nc(SCCOc3ccc([N+](=O)[O-])cc3)[nH]c(=O)c2I)c1`, for which the inhibition at 10 µM in series [1] was determined as 20%.
Consider `COc1ccc(Cc2nc(SCc3ccc(C(F)(F)F)cc3)[nH]c(=O)c2I)cc1OC`, for which the inhibition at 10 µM in series [1] amounted to 54%.
With `O=c1[nH]c(SCc2ccc(I)cc2)nc(Cn2nnc3ccccc32)c1I`, the inhibition at 10 µM in series [1] is 34%.
Regarding `O=c1[nH]c(SCCOc2ccc([N+](=O)[O-])cc2)nc(Cc2ccccc2)c1I`, the inhibition at 10 µM in [1] came to 13%.
Consider `N#Cc1ccc(CSc2nc(Cn3nnc4ccccc43)c(I)c(=O)[nH]2)cc1`, for which the inhibition at 10 µM in [1] was 27%.
The same measure, in the same setting: with `COc1ccc(Cc2nc(SC3C=CCCC3)[nH]c(=O)c2I)cc1OC` (configuration not stated) the figure was 52%.
For `N#Cc1ccc(CSc2nc(Cc3ccccc3)c(I)c(=O)[nH]2)cc1`, the inhibition at 10 µM in series [1] came out at 63%.
On to `COc1ccc(Cc2nc(SCc3cccc(Cl)c3)[nH]c(=O)c2I)cc1OC`, for which, in [2], half-maximal cytotoxicity (CC50 at 168 h) was put at 119 µM. The selectivity ratio in series [3] came out at 27.8. The EC50 in series [4] came to 4.28 µM. In addition, in [1], the inhibition at 10 µM worked out at 65%.
With `COc1ccc(Cc2nc(SC3CCCCCC3)[nH]c(=O)c2I)cc1OC`, the CC50 at 168 h in [2] worked out at 98 µM. For the same compound, in [3], the selectivity ratio worked out at 2.4. Besides, the EC50 in series [4] is 40.8 µM. The inhibition at 10 µM in series [1] came out at 31%.
For the compound `COc1ccc(Cc2nc(SCc3ccc([N+](=O)[O-])cc3)[nH]c(=O)c2I)cc1OC`, the outcome in series [5], in series [6] and in [8] was Active. In [2], this compound returned a CC50 at 168 h of 124 µM. For the same compound, the selectivity ratio in series [3] came to 330. Also, the Activity result in series [7] was “Dose-dependent effect”. Further, the outcome in [9] was inactive. In addition, the EC50 in series [4] is 0.376 µM. Also, the inhibition at 10 µM in [1] stood at 81%.
Take `COc1ccc(Cc2nc(SCCOc3ccc(C)cc3)[nH]c(=O)c2I)cc1OC`: the inhibition at 10 µM in [1] turned out to be 49%.
On the same count and under the same terms, the figure for `COc1ccc(Cc2nc(SCc3ccccc3[N+](=O)[O-])[nH]c(=O)c2I)cc1OC` is 62%; for `Cc1cc(C)cc(Cc2nc(SCc3ccc(C#N)cc3)[nH]c(=O)c2I)c1` it is 33%; for `N#Cc1ccc(CSc2nc(Cc3cc(F)cc(F)c3)c(I)c(=O)[nH]2)cc1` it is 14%.
Regarding `Cc1cc(C)cc(Cc2nc(SCc3ccc([N+](=O)[O-])cc3)[nH]c(=O)c2I)c1`, the inhibition at 10 µM in [1] turned out to be 25%.
The same measure, in the same setting: with `COc1ccc(Cc2nc(SCc3ccc(I)cc3)[nH]c(=O)c2I)cc1OC` the figure was 17%; with `O=c1[nH]c(SCCOc2ccc([N+](=O)[O-])cc2)nc(Cc2cc(F)cc(F)c2)c1I`, 9%.
Turning to `O=c1[nH]c(SCc2ccc(C(F)(F)F)cc2)nc(Cn2nnc3ccccc32)c1I`, the inhibition entry in series [1] was “inactive”.
`COc1cc(CSc2nc(Cc3ccc(OC)c(OC)c3)c(I)c(=O)[nH]2)cc(OC)c1`: the inhibition at 10 µM in series [1] is 41%.
Turning to `Cc1ccc(OCCSc2nc(Cn3nnc4ccccc43)c(I)c(=O)[nH]2)cc1`, the inhibition at 10 µM in series [1] is 35%.
Regarding `COc1ccc(Cc2nc(SCCOc3ccc(Br)cc3)[nH]c(=O)c2I)cc1OC`, the inhibition result in series [1] was “inactive”.
Turning to `O=c1[nH]c(SCCOc2ccc([N+](=O)[O-])cc2)nc(Cn2nnc3ccccc32)c1I`, the outcome in series [5], in series [6] and in series [8] was Active. This compound also returned a CC50 at 168 h in series [2] of 52 µM. For the same compound, the selectivity ratio in [3] is 111. The Activity entry in series [7] is “Dose-dependent effect”. The result in [9] was inactive. Moreover, in series [4], the EC50 was determined as 0.469 µM. In series [1], the inhibition at 10 µM turned out to be 74%.
For the compound `O=c1[nH]c(SCc2ccc([N+](=O)[O-])cc2)nc(Cc2ccccc2)c1I`, in series [1], the inhibition result is “inactive”.
`COc1cc(CSc2nc(Cn3nnc4ccccc43)c(I)c(=O)[nH]2)cc(OC)c1` came in with a 50% cytotoxic concentration (CC50) at 168 h in series [2] of 146 µM. The selectivity ratio in [3] came to 12. Further, the EC50 in series [4] worked out at 12.2 µM. Moreover, the inhibition at 10 µM in series [1] stood at 59%.

The term inhibition denotes the relative decrease from the control value, in per cent. Usually CC50 stands for the concentration at which the toxic effect on the cells reaches its halfway point. A low value points to harm at low concentration. As usually defined, the EC50 is the midpoint of the concentration-response curve.
